Experimental data from PubChem BioAssay AID1919001 (Molecular Pharmacology Branch, DTP, NCI, 2023).

System: 699152-130-R-J1-PDC complex spheroid growth
Test: Anticancer human tumor 699152-130-R-J1-PDC patient-derived pancreatic carcinoma cell line growth inhibition [AhR]
Settings: for IC50: curve of first compound; for viability, T/C: stronger effect = lower value
From the text: Multicellular complex tumor spheroid response to aryl hydrocarbon receptor antagonists in combination with a variety of drugs and investigational agents in selected tumor cell lines
The current study was undertaken to assess response to aryl hydrocarbon receptor antagonists in combination with standard-of-care drugs and investigational agents in solid tumor complex spheroid models. Complex spheroids include a stromal component modeled by human endothelial cells (HUVEC) and fibroblasts modeled by human mesenchymal stem cells (MSCs). The concentration ranges selected for each drug and investigational agent were based upon clinically achievable concentrations if the clinical Cmax of the agent was known.
Compounds. The drugs and investigational agents: BAY 2416964 (NSC825713), GNF351 (NSC835774), CH-223191 (NSC835775), CPI-455 (NSC825282), aza-TdCyd (NSC777586), decitabine (NSC127716), belinostat (NSC758774), entinostat (NSC756642), pevonedistat (NSC761192), tazemetostat (NSC777109), talazoparib (NSC765396), olaparib (NSC753686), selinexor (NSC780203), nedisertib (M3814, NSC802822), bortezomib (NSC756655), venetoclax (NSC766270), doxorubicin (NSC123127), elimusertib (BAY189344, NSC800525), ceralasertib (AZD6738, NSC777638), TAK-243 (NSC785004), alisertib (NSC759677), etoposide (NSC141540), topotecan (NSC609699), eribulin (NSC707389), gemcitabine (NSC613327), carboplatin (NSC241240), cisplatin (NSC119875), and SN-38 (NSC673596) were obtained from the National Cancer Institute (NCI) Developmental Therapeutics Program Chemical Repository (32). The FDA-approved anticancer drug set is available from the Developmental Therapeutics Program at https://dtp.cancer.gov/organization/dscb/obtaining/available plates.htm. […] The stock solutions were prepared in dimethyl sulfoxide (DMSO, Sigma-Aldrich, St. Louis, MO, cat. D2650), except for the platinum compounds which were prepared in saline (Quality Biological, Gaithersburg, MD, cat. 114-055-101), at 800-fold the tested concentration and stored at -70 degrees C prior to their use. All drugs and investigational agents were tested over a range starting from a high concentration at or near the clinical Cmax and decreasing in half-log increments. If the clinical Cmax for an agent had not been determined, the highest concentration tested was 10 microM (Table 1).
Cell Culture. All cells were maintained in an incubator at 37 degrees C and 5% CO2 with 95% humidity. The PDC lines were cultured according to standard operating procedures established by the NCI PDMR (https://pdmr.cancer.gov). Briefly, all PDCs were thawed and cultured in Matrigel-coated flasks prepared with a working solution of 1X Ham's F-12 nutrient mix, without supplementation (Invitrogen, Waltham, MA, cat. 11765054), 100 U/mL penicillin-streptomycin (Invitrogen, cat. 15140122), and 2.5% Matrigel (Corning Inc., Corning, NY, cat. 354248) for the first three passages. All PDCs were cultured in complete DMEM/F-12 media containing advanced DMEM/F-12 (Invitrogen, cat. 12634028), 4.9% defined fetal bovine serum, heat inactivated (HyClone Laboratories Inc., Logan, UT, cat. SH30070.03HI), 389 ng/mL hydrocortisone (Sigma-Aldrich, cat. H4001), 9.7 ng/mL human EGF recombinant protein (Invitrogen, cat. PHG0313), 23.4 microg/mL adenine (Sigma-Aldrich, cat. A2786), 97.3 U/mL penicillin-streptomycin (Invitrogen, cat. 15140122), 1.9 mM L-glutamine (Invitrogen, cat. 25030081), and 9.7 microM Y-27632 dihydrochloride (Tocris Bioscience, Bristol, United Kingdom, cat. 1254). The PDCs were cultured in complete DMEM/F12 media without 10 microM Y-27632 dihydrochloride for at least two passages prior to the screen. The established cell lines NCI-H1341 and […] were cultured in DMEM/F-12, HEPES (Invitrogen, cat. 11330032), 5% defined fetal bovine serum (HyClone Laboratories Inc., cat. SH30070.03), ITS premix universal culture supplement [insulin (5 microg/mL), transferrin (5 microg/mL), and selenious acid (5 ng/mL)] […]

[1] = second compound 0.1 µM, first compound 0.0316 µM
[2] = second compound 0.1 µM, first compound 0.1 µM
[3] = second compound 0.1 µM, first compound 0.316 µM
[4] = second compound 0.1 µM, first compound 1 µM
[5] = second compound 0.1 µM, first compound 3.16 µM
[6] = second compound 0.1 µM, first compound 10 µM
[7] = second compound 0.316 µM, first compound 0.0316 µM
[8] = second compound 0.316 µM, first compound 0.1 µM
[9] = second compound 0.316 µM, first compound 0.316 µM
[10] = second compound 0.316 µM, first compound 1 µM
[11] = second compound 0.316 µM, first compound 3.16 µM
[12] = second compound 0.316 µM, first compound 10 µM
[13] = second compound 1 µM, first compound 0.0316 µM
[14] = second compound 1 µM, first compound 0.1 µM
[15] = second compound 1 µM, first compound 0.316 µM
[16] = second compound 1 µM, first compound 1 µM
[17] = second compound 1 µM, first compound 3.16 µM
[18] = second compound 1 µM, first compound 10 µM
[19] = second compound 3.16 µM, first compound 0.0316 µM
[20] = second compound 3.16 µM, first compound 0.1 µM
[21] = second compound 3.16 µM, first compound 0.316 µM
[22] = second compound 3.16 µM, first compound 1 µM
[23] = second compound 3.16 µM, first compound 3.16 µM
[24] = second compound 3.16 µM, first compound 10 µM
[25] = second compound 10 µM, first compound 0.0316 µM
[26] = second compound 10 µM, first compound 0.1 µM
[27] = second compound 10 µM, first compound 0.316 µM
[28] = second compound 10 µM, first compound 1 µM
[29] = second compound 10 µM, first compound 3.16 µM
[30] = second compound 10 µM, first compound 10 µM
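Note: compound exposure lasted 7 days after spheroids had grown for 3 days.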

CCc1c2c(nc3ccc(O)cc13)-c1cc3c(c(=O)n1C2)COC(=O)[C@]3(O)CC + CC(CO)NC(=O)c1cc(-c2ccc(Cl)cc2)nn(-c2cnn(C)c2)c1=O
IC50 (second compound 0.1 µM): 0.0182 µM | IC50 (second compound 0.316 µM): 0.0264 µM | IC50 (second compound 1 µM): 0.0421 µM | IC50 (second compound 3.16 µM): 0.0221 µM | IC50 (second compound 10 µM): 0.0473 µM | viability, T/C (second compound 0.1 µM, first compound 0.000949 µM): 89% | viability, T/C (second compound 0.1 µM, first compound 0.003 µM): 83.5% | viability, T/C (second compound 0.1 µM, first compound 0.00949 µM): 56.5% | viability, T/C (second compound 0.1 µM, first compound 0.03 µM): 46.2% | viability, T/C (second compound 0.1 µM, first compound 0.0949 µM): 48% | viability, T/C (second compound 0.1 µM, first compound 0.3 µM): 35.7% | viability, T/C (second compound 0.316 µM, first compound 0.000949 µM): 83.3% | viability, T/C (second compound 0.316 µM, first compound 0.003 µM): 75.5% | viability, T/C (second compound 0.316 µM, first compound 0.00949 µM): 58.9% | viability, T/C (second compound 0.316 µM, first compound 0.03 µM): 49.4% | viability, T/C (second compound 0.316 µM, first compound 0.0949 µM): 44.8% | viability, T/C (second compound 0.316 µM, first compound 0.3 µM): 41.3% | viability, T/C (second compound 1 µM, first compound 0.000949 µM): 85.7% | viability, T/C (second compound 1 µM, first compound 0.003 µM): 75.4% | viability, T/C (second compound 1 µM, first compound 0.00949 µM): 61.3% | viability, T/C (second compound 1 µM, first compound 0.03 µM): 51.4% | viability, T/C (second compound 1 µM, first compound 0.0949 µM): 47.2% | viability, T/C (second compound 1 µM, first compound 0.3 µM): 41.5% | viability, T/C (second compound 3.16 µM, first compound 0.000949 µM): 72.3% | viability, T/C (second compound 3.16 µM, first compound 0.003 µM): 64.4% | viability, T/C (second compound 3.16 µM, first compound 0.00949 µM): 57.2% | viability, T/C (second compound 3.16 µM, first compound 0.03 µM): 45.3% | viability, T/C (second compound 3.16 µM, first compound 0.0949 µM): 42% | viability, T/C (second compound 3.16 µM, first compound 0.3 µM): 31.4% | viability, T/C (second compound 10 µM, first compound 0.000949 µM): 71.9% | viability, T/C (second compound 10 µM, first compound 0.003 µM): 69.4% | viability, T/C (second compound 10 µM, first compound 0.00949 µM): 61.7% | viability, T/C (second compound 10 µM, first compound 0.03 µM): 52.6% | viability, T/C (second compound 10 µM, first compound 0.0949 µM): 45.9% | viability, T/C (second compound 10 µM, first compound 0.3 µM): 28.4%

Nc1ccn(C2OC(CO)C(O)C2(F)F)c(=O)n1 (stereo not given) + CC(CO)NC(=O)c1cc(-c2ccc(Cl)cc2)nn(-c2cnn(C)c2)c1=O
IC50 (second compound 0.1 µM): 5.75 µM | IC50 (second compound 0.316 µM): 10 µM | IC50 (second compound 1 µM): 7.01 µM | IC50 (second compound 3.16 µM): 2.91 µM | IC50 (second compound 10 µM): 9.15 µM | viability, T/C [1]: 67.1% | viability, T/C [2]: 73.4% | viability, T/C [3]: 62% | viability, T/C [4]: 56.4% | viability, T/C [5]: 52.6% | viability, T/C [6]: 48.1% | viability, T/C [7]: 67% | viability, T/C [8]: 73.1% | viability, T/C [9]: 50.8% | viability, T/C [10]: 53.6% | viability, T/C [11]: 50.6% | viability, T/C [12]: 47% | viability, T/C [13]: 68.8% | viability, T/C [14]: 69.5% | viability, T/C [15]: 63.5% | viability, T/C [16]: 61.5% | viability, T/C [17]: 56.7% | viability, T/C [18]: 47.1% | viability, T/C [19]: 66.1% | viability, T/C [20]: 67.4% | viability, T/C [21]: 55.8% | viability, T/C [22]: 54.3% | viability, T/C [23]: 49.2% | viability, T/C [24]: 46.3% | viability, T/C [25]: 68.9% | viability, T/C [26]: 70.7% | viability, T/C [27]: 62% | viability, T/C [28]: 60.9% | viability, T/C [29]: 53.9% | viability, T/C [30]: 50%

O=C(c1cc(Cc2n[nH]c(=O)c3ccccc23)ccc1F)N1CCN(C(=O)C2CC2)CC1 + CC(CO)NC(=O)c1cc(-c2ccc(Cl)cc2)nn(-c2cnn(C)c2)c1=O
IC50 (second compound 0.1 µM): > 10 µM | IC50 (second compound 0.316 µM): > 10 µM | IC50 (second compound 1 µM): > 10 µM | IC50 (second compound 3.16 µM): > 10 µM | IC50 (second compound 10 µM): > 10 µM | viability, T/C [1]: 85.1% | viability, T/C [2]: 107% | viability, T/C [3]: 93.3% | viability, T/C [4]: 81.8% | viability, T/C [5]: 97% | viability, T/C [6]: 89.5% | viability, T/C [7]: 93% | viability, T/C [8]: 88.3% | viability, T/C [9]: 88.8% | viability, T/C [10]: 87.7% | viability, T/C [11]: 77.3% | viability, T/C [12]: 78% | viability, T/C [13]: 87.6% | viability, T/C [14]: 95.9% | viability, T/C [15]: 93.4% | viability, T/C [16]: 86.6% | viability, T/C [17]: 85.5% | viability, T/C [18]: 77.4% | viability, T/C [19]: 82.8% | viability, T/C [20]: 93.1% | viability, T/C [21]: 85.5% | viability, T/C [22]: 80.5% | viability, T/C [23]: 65.6% | viability, T/C [24]: 69.7% | viability, T/C [25]: 84.3% | viability, T/C [26]: 83.1% | viability, T/C [27]: 80% | viability, T/C [28]: 75.3% | viability, T/C [29]: 79.3% | viability, T/C [30]: 69.9%
